The record followed here is patent US12421221B2 (ONCOBIX CO., LTD., priority 2019, dated 2025).

One assay deals with H2228 (EML4-ALK v3). Kind of assay: Cancer cell growth inhibitory effect (MTT assay). Type of assay: cell-based. As to conditions: Homo sapiens, NCI-H2228, 72 hours, read-out: H2228 cell growth inhibition IC50. The protocol: (§1) With respect to the compounds obtained in Examples, a growth inhibitory effect of ALK mutation cancer cells and EGFR mutation Ba/F3 cancer cell lines was measured. The anti-cancer efficacy activity measurement was performed by the following method using an ALK mutation cell line such as H3122 (EML4-ALK v1), H2228 (EML4-ALK v3), etc. and an EGFR mutation Ba/F3 stable cell line.
(§2) 2×10^5 cells were seeded on a 96-well plate. After 24 hours, each of the drugs was treated in a dose dependent manner, and incubated after 72 hours, a 15 μL MTT reagent reacted for 4 hours, and then 100 μL 10% SDS was added and incubated for 24 hours. […] MTT result analysis measured the IC50 values through prism software.
(In general: Tetrazolium assays rely on reduction of a dye to a coloured formazan, in cell work by metabolically active cells.)

A further assay has as its system H3122 (EML4-ALK v1). In words: Cancer cell growth inhibitory effect (MTT assay). The format is cell-based. As to conditions: Homo sapiens, NCI-H3122, 72 hours, read-out: H3122 cell growth inhibition IC50. The protocol: as §1, §2
The target in a further assay is EGFR (del19/T790M/C797S) (Homo sapiens, UniProt P00533, C797S/DEL746-750/T790M). Kind of assay: Kinase inhibitory activity (33P-ATP filter-binding, scintillation counting). The format is biochemical. The protocol: (§3) The measurement of the kinase inhibitory activity was performed in the following method.
(§4) 2. An evaluation compound (DMSO solution) and Mg/ATP were added to perform the reaction.
(§5) 3. After about 40 minutes at room temperature, 10 μL of 0.5% phosphoric acid was added to complete the reaction.
(§6) 4. The reaction solution was divided by 0.5% 10 μL and spotted on a P30 filtermat.
(§7) 5. […] The reaction solution was washed once with methanol and then dried and analyzed with scintillation counting to measure IC50 values.

Another assay addresses EGFR (del19/L858R/T790M) (Homo sapiens, UniProt P00533, T790M, form not given). The assay is described as above. The format is biochemical. As for the experimental part: as §3, §4, §5, §6, §7
The target in a further assay is ALK (L1196M) (Homo sapiens, UniProt Q9UM73, L1196M). Described as above. Type of assay: biochemical. The protocol:
as §3, §4, §5, §6, §7

For assay [1], the target named is T1, EGFR mutation Ba/F3 stable cell line DEL19/T790M/C797S (Homo sapiens, UniProt P00533, DEL746-750/T790M/C797S, cells depend on it).
T1 construct: "del19, #32062; del19+T790M, #32072)
Kind of assay: Cancer cell growth inhibitory effect (MTT assay). As to conditions: 72 hours, read-out: DEL19/T790M/C797S cell growth inhibition IC50. Type of assay: cell-based, Murine. The protocol:
as §1
Ba/F3 stable cell line construction: Murine lymphoid cells performed IL-3 dependent growth. […] A stable cell line was constructed using this principle even without puromycin selection. Briefly, each construction was infected on Ba/F3, and after 48 hours, IL-3 was removed by media exchange and cells were cultured. However, in the case of the wild type EGFR, puromycin selection was performed.
as §2

On to `COc1cc(N2CCOCC2)c(-c2cnn(C)c2)cc1Nc1ncc(Cl)c(Nc2ccccc2N(C)S(C)(=O)=O)n1` [Example 1, N-(2-((5-chloro-2-((2-methoxy-5-(1-methyl-1H-pyrazol-4-yl)-4-morpholinophenyl)amino)pyrimidine-4-yl)amino)phenyl)-N-methylmethanesulfonamide], for which the IC50 in the assay with H2228 (EML4-ALK v3) is under 100 nM; with H3122 (EML4-ALK v1), 50 to 100 nM; at EGFR (del19/T790M/C797S), under 50 nM; on EGFR (del19/L858R/T790M) it was under 50 nM; at ALK (L1196M), under 50 nM; in assay [1] it was under 100 nM.

In the case of `COc1cc(N2CCOCC2)c(-c2cnn(C)c2)cc1Nc1ncc(Cl)c(Nc2ccccc2NS(C)(=O)=O)n1` [Example 2, N-(2-((5-chloro-2-((2-methoxy-5-(1-methyl-1H-pyrazol-4-yl)-4-morpholinophenyl)amino)pyrimidine-4-yl)amino)phenyl)methanesulfonamide], the IC50 with H2228 (EML4-ALK v3) was under 100 nM; in the assay with H3122 (EML4-ALK v1), 50 to 100 nM; on ALK (L1196M), under 50 nM.

As to `COc1cc(N2CCSCC2)c(-c2cnn(C)c2)cc1Nc1ncc(Cl)c(Nc2ccccc2N(C)S(C)(=O)=O)n1` [Example 3], the IC50 with H2228 (EML4-ALK v3) is under 100 nM; in the assay on H3122 (EML4-ALK v1), 50 to 100 nM; at EGFR (del19/T790M/C797S), under 50 nM; at EGFR (del19/L858R/T790M), under 50 nM; on ALK (L1196M), under 50 nM; in assay [1], under 100 nM.

As to `COc1cc(N2CCN(C)CC2)c(-c2cnn(C)c2)cc1Nc1ncc(Cl)c(Nc2ccccc2N(C)S(C)(=O)=O)n1` [Example 4], the IC50 is 50 to 100 nM in the assay on H2228 (EML4-ALK v3); 50 to 100 nM in the assay with H3122 (EML4-ALK v1); 50 to 100 nM at EGFR (del19/T790M/C797S); under 50 nM on EGFR (del19/L858R/T790M); under 50 nM at ALK (L1196M); 50 to 100 nM in assay [1].

For the compound `COc1cc(N2CC3(COC3)C2)c(-c2cnn(C)c2)cc1Nc1ncc(Cl)c(Nc2ccccc2N(C)S(C)(=O)=O)n1` [Example 5, N-(2-((5-chloro-2-((2-methoxy-5-(1-methyl-1H-pyrazol-4-yl)-4-(2-oxa-6-azaspiro[3.3]heptane-6-yl)phenyl)amino)pyrimidine-4-yl)amino)phenyl)-N-methylmethanesulfonamide], the IC50 with H2228 (EML4-ALK v3) was under 100 nM; in the assay on H3122 (EML4-ALK v1) it was 50 to 100 nM; at EGFR (del19/T790M/C797S), under 50 nM; on EGFR (del19/L858R/T790M), under 50 nM; at ALK (L1196M), under 50 nM; in assay [1], under 100 nM.

With `COc1cc(N2CC3(CN(C)C3)C2)c(-c2cnn(C)c2)cc1Nc1ncc(Cl)c(Nc2ccccc2N(C)S(C)(=O)=O)n1` [Example 6, N-(2-((5-chloro-2-((2-methoxy-5-(1-methyl-1H-pyrazol-4-yl)-4-(6-methyl-2,6-diazaspiro[3.3]heptane-2-yl)phenyl)amino)pyrimidine-4-yl)amino)phenyl)-N-methylmethanesulfonamide], the IC50 is 50 to 100 nM in the assay with H2228 (EML4-ALK v3); 50 to 100 nM in the assay on H3122 (EML4-ALK v1); 50 to 100 nM on EGFR (del19/T790M/C797S); under 50 nM at EGFR (del19/L858R/T790M); under 50 nM at ALK (L1196M); 50 to 100 nM in assay [1].

As for `COc1cc(N2CCSCC2)c(-c2cnn(C)c2)cc1Nc1ncc(Cl)c(Nc2ccccc2NS(C)(=O)=O)n1` [Example 7, N-(2-((5-chloro-2-((2-methoxy-5-(1-methyl-1H-pyrazol-4-yl)-4-thiomorpholinophenyl)amino)pyrimidine-4-yl)amino)phenyl)methanesulfonamide], the IC50 in the assay with H2228 (EML4-ALK v3) was under 100 nM; with H3122 (EML4-ALK v1), 50 to 100 nM; at EGFR (del19/T790M/C797S), under 50 nM; at EGFR (del19/L858R/T790M), under 50 nM; on ALK (L1196M) it was under 50 nM; in assay [1], under 100 nM.

Turning to `COc1cc(N2CCN(C)CC2)c(-c2cnn(C)c2)cc1Nc1ncc(Cl)c(Nc2ccccc2NS(C)(=O)=O)n1` [Example 8, N-(2-((5-chloro-2-((2-methoxy-5-(1-methyl-1H-pyrazol-4-yl)-4-(4-methylpiperazine-1-yl)phenyl)amino)pyrimidine-4-yl)amino)phenyl)methanesulfonamide], the IC50 is over 500 nM with H2228 (EML4-ALK v3); over 500 nM in the assay on H3122 (EML4-ALK v1); 50 to 100 nM at EGFR (del19/T790M/C797S); 50 to 100 nM at EGFR (del19/L858R/T790M); under 50 nM on ALK (L1196M); 50 to 100 nM in assay [1].

Regarding `COc1cc(N2CC3(COC3)C2)c(-c2cnn(C)c2)cc1Nc1ncc(Cl)c(Nc2ccccc2NS(C)(=O)=O)n1` [Example 9, N-(2-((5-chloro-2-((2-methoxy-5-(1-methyl-1H-pyrazol-4-yl)-4-(2-oxa-6-azaspiro[3.3]heptane-6-yl)phenyl)amino)pyrimidine-4-yl)amino)phenyl)methanesulfonamide], the IC50 is 50 to 100 nM with H2228 (EML4-ALK v3); 50 to 100 nM with H3122 (EML4-ALK v1); under 50 nM at EGFR (del19/T790M/C797S); under 50 nM on EGFR (del19/L858R/T790M); under 50 nM at ALK (L1196M); under 100 nM in assay [1].

In the case of `COc1cc(N2CC3(CN(C)C3)C2)c(-c2cnn(C)c2)cc1Nc1ncc(Cl)c(Nc2ccccc2NS(C)(=O)=O)n1` [Example 10, N-(2-((5-chloro-2-((2-methoxy-5-(1-methyl-1H-pyrazol-4-yl)-4-(6-methyl-2,6-diazaspiro[3.3]heptane-2-yl)phenyl)amino)pyrimidine-4-yl)amino)phenyl)methanesulfonamide], the IC50 is over 500 nM with H2228 (EML4-ALK v3); over 500 nM in the assay on H3122 (EML4-ALK v1); 50 to 100 nM on EGFR (del19/T790M/C797S); 50 to 100 nM on EGFR (del19/L858R/T790M); under 50 nM at ALK (L1196M); 50 to 100 nM in assay [1].

On to `C=CC(=O)Nc1cc(Nc2nccc(-c3cn(C)c4ccccc34)n2)c(OC)cc1N(C)CCN(C)C` [Osimertinib, osimertinib, reference compound], for which the IC50 with H2228 (EML4-ALK v3) was over 500 nM; with H3122 (EML4-ALK v1), over 500 nM; at ALK (L1196M), 50 to 100 nM.
